Patent US20220145249A1, “A Method of Altering a Differentiation Status of a Cell” (Agency for Science, Technology and Research, priority 2019, published 2022)

Columns and labels:
Format in all cases: cell-based, human
EPO [1] = assay: qPCR screening of EPO sgRNA lentiviruses; conditions: day 4 after transduction, unconcentrated lentivirus supernatant
Protocol: cDNA was synthesized from 1 μg of RNA using the Maxima First Strand cDNA Synthesis Kit (ThermoFisher). Quantitative real-time polymerase chain reaction (qPCR) was carried out using QuantStudio 3 Real-Time PCR System (ThermoFisher). The samples were run in biological triplicates and expression levels normalized using the geometric mean of the “housekeeping” gene: glyceraldehyde phosphate dehydrogenase (GAPDH).
(§1) For this, four different sgRNAs were designed for each of the growth factors/cytokines and constructed lentiviral vectors as mentioned previously (Table 4). For testing the activity of EPO expression, the lentiviruses of four different sgRNAs were produced and screened for the best performing guide in activating EPO expression. The iPSC-CRISPR dCas9 SAM cells were transduced with the unconcentrated lentivirus supernatant of the four sgRNAs individually and tested for their EPO gene expression using qPCR analysis on day 4 cells after transduction. […] Further, the spent media of the cells were collected from two wells of a 12-well plate on days 3 and 4 transduced with EPO_g2 and was stored in −20° C. Next, an Amicon Ultra-15 centrifugal filter was used with 10KDa cut-off membrane (EPO molecular weight: 21 KDa) to concentrate the EPO protein and the retentate washed with 1× PBS was used for ELISA assay.

EPO [2] = assay: EPO ELISA of spent medium after endogenous EPO activation; conditions: iPSC-CRISPR dCas9 SAM cells, spent medium of days 3 and 4 pooled, concentrated with 10 KDa filter, retentate, commercial ELISA
Protocol: FIG. 14 Endogenous activation of erythropoietin (EPO) growth factor in human iPSC-dCas9 SAM cells. (a) qPCR data collected after 4 days of EPO sgRNAs lentivirus (unconcentrated) transduction. (b) EPO ELISA was carried out using two commercially available sources to quantify the CRISPRa EPO. For this, the spent mTesR medium of cells transduced with EPO_g2 were collected on days 3 and 4, the pooled medium was concentrated using Amicon Ultra-15 centrifugal filter (10 KDa cutoff membrane) since the EPO MW is 21 KDa. The retentate was used for quantification using ELISA. According to the standards, the EPO secreted in the medium is in the range of 47-51 IU/mL of EPO.
as §1, with “Next, an Amicon Ultra-15 centrifugal filter was used with 10KDa cut-off membrane (EPO molecular weight: 21 KDa) to concentrate the EPO protein and the retentate washed with 1× PBS was used for ELISA assay.” left out

[3] = test system: iPSC-CRISPR dCas9 SAM cells; assay: minimum inhibitory concentration (MIC) assay for geneticin
Source text: The lentiviral vector backbone encodes geneticin as an antibiotic selection marker.

Row | Molecule | EPO gene expression compared to non-transduced control cells (EPO [1]) | EPO secreted in the medium (EPO [2]) | MIC of geneticin [3]
1 | EPO_g2: sgRNA for EPO, guide sequence TGTGCGTGAGGGGTCGCCAG (listed as DNA, chemistry not given here) | higher EPO gene expression | 47-51 IU/mL | –
2 | CN[C@@H]1[C@@H](O)[C@@H](O[C@@H]2[C@@H](O)[C@H](O[C@H]3O[C@H]([C@@H](C)O)[C@@H](O)[C@H](O)[C@H]3N)[C@@H](N)C[C@H]2N)OC[C@]1(C)O [geneticin] | – | – | 100 µg/mL
